# Measured values from ChEMBL document CHEMBL5537109, “Natural products as potential lead compounds to develop new antiviral drugs over the past decade” (Eur J Med Chem, 2023).
# Molecular target: Neuraminidase (Influenza A virus (A/Puerto Rico/8/1934(H1N1)), UniProt P03468, H274Y)
# Assay: Inhibition of influenza A virus H1N1 neuraminidase H274Y mutant
smiles,measurement,value
C[C@@H]1C[C@H](C)C(=O)[C@@H]2O[C@@H]2[C@@H]2[C@@H](O)[C@@H]3OC4=C(C(=O)O[C@@]42C[C@H]3C)C1=O,IC50,> 44.2 µM
